The results in this text go back to patent US20240025891A1 (Celgene Corporation, priority 2020, published 2024).

The assay has as its system Dirofilaria immitis microfilariae and 4th stage larvae (L4). The experiment in a line: Heartworm screen Dirofilaria immitis (DiMF and DiL4 assays). The following applies: read-out: D. immitis Act class. The assay is classed as cell-based. The method, then:
Heartworm Screen Dirofilaria immitis (D. immitis)
Dirofilaria immitis, Microfilaria (DiMF) Assay. Compounds were dissolved and serially diluted in DMSO. Aliquots were spotted to the empty wells of assay plates. Media and microfilariae of Dirofilaria immitis were added to each well to dilute the test compounds to the desired concentrations. Assay plates were incubated for approximately 72 hours, and the larvae in each well were observed microscopically for drug effect. Microfilariae in each well were assessed subjectively for survival or paralysis, and results were reported as Minimum Effective Dose (MED).
Dirofilaria immitis, L4 stage (DiL4) Assay. Compounds were dissolved and serially diluted in DMSO. Aliquots were spotted to the empty wells of assay plates. Media and 4th stage larvae (L4) of Dirofilaria immitis were added to each well to dilute the test compounds to the desired concentrations. Assay plates were incubated for approximately 72 hours, and the larvae in each well were observed microscopically for drug effect. Larvae in each well were assessed subjectively for survival or paralysis, and results were reported as Minimum Effective Dose (MED).
Active and selective (DiL4 vs. DiMF potency) example compounds were subsequently evaluated in heartworm positive dog studies to correlate the in vitro selectivity profile with in vivo effects on circulating microfilariae.
With `CCOc1cccc(-c2csc(Nc3cc(C)ccn3)n2)n1` [Example 78, 4-(6-ethoxypyridin-2-yl)-N-(4-methylpyridin-2-yl)thiazol-2-amine], the IC50 is 500 to 5000 nM.

As for `c1ccc(-c2cccnc2Nc2nc(-c3ccccn3)cs2)cc1` [Example 125, N-(3-phenylpyridin-2-yl)-4-(pyridin-2-yl)thiazol-2-amine], the IC50 fell in the range of 500 to 5000 nM. To `Cc1cc(C(F)(F)F)cnc1Nc1nc(-c2cc3c(cn2)N(C)CC3)cs1` [Example 97, 4-(1-methyl-2,3-dihydro-1H-pyrrolo[2,3-c]pyridin-5-yl)-N-(3-methyl-5-(trifluoromethyl)pyridin-2-yl)thiazol-2-amine] belongs < 200 nM. For `CCOc1ccc(-c2csc(Nc3ncc(F)cc3C)n2)nc1` [Example 79, 4-(5-ethoxypyridin-2-yl)-N-(5-fluoro-3-methylpyridin-2-yl)thiazol-2-amine], the IC50 fell in the range of 200 to 500 nM.

Take `COc1ccc(-c2csc(Nc3cc(C)ccn3)n2)nc1` [Example 225, 4-(5-methoxypyridin-2-yl)-N-(4-methylpyridin-2-yl)thiazol-2-amine]: the IC50 was 200 to 500 nM.

Take `Cc1cnc(Nc2nc(-c3ccccn3)cs2)c(C)c1` [Example 124, N-(3,5-dimethyl-pyridin-2-yl)-4-(pyridin-2-yl)thiazol-2-amine]: the IC50 is < 200 nM.

As for `COc1ccnc(-c2csc(Nc3ncc(C(F)(F)F)cc3N(C)C(C)=O)n2)c1` [Example 96, N-(2-(4-(4-methoxypyridin-2-yl)thiazol-2-ylamino)-5-(trifluoromethyl)pyridin-3-yl)-N-methylacetamide], the IC50 lay in the range of 200 to 500 nM. On to `Cc1ccnc(Nc2nc(-c3ccccn3)c(C(C)(C)C)s2)c1` [Example 181, 5-tert-butyl-N-(4-methylpyridin-2-yl)-4-(pyridin-2-yl)thiazol-2-amine], for which the IC50 lay within 500 to 5000 nM. To `CC(=O)N(C)c1cc(C(F)(F)F)cnc1Nc1nc(-c2cc(OC3COC3)ccn2)cs1` [Example 73, N-methyl-N-(2-(4-(4-(oxetan-3-yloxy)pyridin-2-yl)thiazol-2-ylamino)-5-(trifluoromethyl)pyridin-3-yl)acetamide] belongs 500 to 5000 nM.

On to `c1ccc(-c2csc(Nc3cc(-c4cccc5ccccc45)ccn3)n2)nc1` [Example 175, N-(4-(naphthalen-1-yl)pyridin-2-yl)-4-(pyridin-2-yl)thiazol-2-amine], for which the IC50 was < 200 nM. For `Cc1cccnc1-c1csc(Nc2cc(-c3ccccc3)ccn2)n1` [Example 100, 4-(3-methylpyridin-2-yl)-N-(4-phenylpyridin-2-yl)thiazol-2-amine], the IC50 fell in the range of 200 to 500 nM. As to `Cc1ccnc(-c2csc(Nc3ncccc3C)n2)c1` [Example 222, N-(3-methylpyridin-2-yl)-4-(4-methylpyridin-2-yl)thiazol-2-amine], the IC50 is < 200 nM. To `COc1ccnc(Nc2nc(-c3ccccn3)cs2)c1` [Example 121, N-(4-methoxypyridin-2-yl)-4-(pyridin-2-yl)thiazol-2-amine] belongs 200 to 500 nM; to `Cc1ccnc(Nc2nc(-c3ccccn3)c(C)s2)c1` [Example 132, 5-methyl-N-(4-methyl-pyridin-2-yl)-4-(pyridin-2-yl)thiazol-2-amine], 200 to 500 nM. As for `COc1cccnc1-c1csc(Nc2cc(C)ccn2)n1` [Example 7], the IC50 is 200 to 500 nM. Turning to `CCOc1ccc(-c2csc(Nc3ccc(C(F)(F)F)cn3)n2)nc1` [Example 95, 4-(5-ethoxypyridin-2-yl)-N-(5-(trifluoromethyl)pyridin-2-yl)thiazol-2-amine], the IC50 was < 200 nM. As for `CCCCc1ccnc(Nc2nc(-c3ccccn3)cs2)c1` [Example 167, N-(4-butylpyridin-2-yl)-4-(pyridin-2-yl)thiazol-2-amine], the IC50 was < 200 nM.

As to `c1ccc(-c2csc(Nc3cc(-c4ncccn4)ccn3)n2)nc1` [Example 174, 4-(pyridin-2-yl)-N-(4-(pyrimidin-2-yl)pyridin-2-yl)thiazol-2-amine], the IC50 is 200 to 500 nM.
